Molecules are shown by their SMILES.

For experiment [1], the system named is H358 cells. Briefly: H358 cell proliferation inhibition (CellTiter-Glo luminescent cell viability assay). The format is cell-based. The following applies: Homo sapiens, NCI-H358, 168 h, 7 days. In short, it runs like this: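 H358 cells seeded at 3000 cells/well in RPMI1640/10% FBS, treated with compound for 7 days at 37 °C/5% CO2. Viability read by CellTiter-Glo 3D luminescence, normalised to cell-free (100%) and compound-free (0%) controls; IC50 fitted from 8 concentrations by four-parameter curve.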
In general terms: In ATP-based viability assays light output follows the ATP content of the culture.

Experiment [2] has as its system p-ERK pathway in H358 cells. The experiment can be described thus: p-ERK pathway inhibition in H358 cells (Advanced phospho-ERK (Thr202/Tyr204) cellular kit, HTRF). As to conditions: Homo sapiens, NCI-H358, 1 h compound incubation. The format is cell-based. The procedure, abridged: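 Serum-starved H358 cells (50000/well, overnight) treated with compound for 1 h at 37 °C, then lysed; phospho-ERK (Thr202/Tyr204) read by HTRF (665/620 nm ratio). Cell-free wells set 100% inhibition, untreated cells 0%; IC50 fitted from 8 concentrations by four-parameter curve.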
For orientation: TR-FRET usually uses a lanthanide donor and a delayed reading to cut background.

Regarding `Cc1nc(N[C@H](C)c2cccc(C(F)F)c2F)c2cn(C3(CF)CC3)c(=O)c(N3CCN(C4COC4)CC3)c2n1` [Example 95, (R)-4-((1-(3-(difluoromethyl)-2-fluorophenyl)ethyl)amino)-6-(1-(fluoromethyl)cydopropyt)-2-methyt-8-(4-(oxetan-3-yt)piperazin-l-yt)pyrido[4,3-d]pyrimidine-7(6H)-one], the IC50 (in general, the concentration at which inhibition is half-maximal) came out at 0.0102 µM in experiment [1] and 0.0308 µM in experiment [2].
For `CCN(CC)c1c(=O)n(C2(CF)CC2)cc2c(N[C@H](C)c3cccc(C(F)F)c3F)nc(C)nc12` [Example 96, (R)-8-(diethylamino)-4-((1-(3-(difluoromethyl)-2-fluorophenyl)ethyl)amino)-6-(1-(fluoromethyl)cyclopropyl)-2-methylpyrido[4,3-d]pyrimidine-7(6H)-one] the same measures were 0.0505 µM and 0.0955 µM.
`Cc1nc(N[C@H](C)c2cccc(C(F)F)c2F)c2cn(C3(CF)CC3)c(=O)c(N3CCc4cn(C)nc4C3)c2n1` [Example 98, (R)-4-((1-(3-(difluoromethyl)-2-fluorophenyl)ethyl)amino)-6-(1-(fluoromethyl)cyclopropyl)-2-methyl-8-(2-methyl-2,4,5,7-tetrahydro-6H-pyrazolo[3,4-c]pyridin-6-yl)pyrido[4,3-d]pyrimidine-7(6H)-one]: the IC50 came out at 0.044 µM in experiment [1] and 0.0556 µM in experiment [2].
Regarding `Cc1nc(N[C@H](C)c2cccc(C(F)F)c2F)c2cn(N3CCOCC3)c(=O)c(-c3cnc4c(cnn4C)c3)c2n1` [Example 100], the IC50 in experiment [1] was found to be 0.0808 µM; in experiment [2] it was 0.0498 µM.
`Cc1nc(N[C@H](C)c2cccc(C(F)F)c2F)c2cn(C3(CF)CC3)c(=O)c(N=S(C)(C)=O)c2n1` [Example 103, (R)-4-((1-(3-(difluoromethyl)-2-fluorophenyl)ethyl)amino)-8-((dimethyl(oxo)-λ^6-sulfanylidene)amino)-6-(1-(fluoromethyl)cyclopropyl)-2-methylpyrido[4,3-d]pyrimidine-7(6H)-one]: the IC50 came out at 0.13 µM in experiment [1] and 0.0824 µM in experiment [2].
For `Cc1nc(N[C@H](C)c2cccc(C(F)F)c2F)c2cn(C3(CF)CC3)c(=O)c(-n3ncc4ncccc43)c2n1` [Example 104, (R)-4-((1-(3-(difluoromethyl)-2-fluorophenyl)ethyl)amino)-6-(1-(fluoromethyl)cyclopropyl)-2-methyl-8-(1H-pyrazolo[4,3-b]pyridin-1-yl)pyrido[4,3-d]pyrimidine-7(6H)-one] the same measures were 0.145 µM and 0.0575 µM.
Consider `Cc1nc(N[C@H](C)c2cccc(C#N)c2C)c2cn(N3CCOCC3)c(=O)c(N3CCOCC3)c2n1` [Example 108, (R)-2-methyl-3-(1-((2-methyl-6,8-dimorpholine-7-oxo-6,7-dihydropyrido[4,3-d]pyrimidin-4-yl)amino)ethyl)benzonitrile], for which the values for the IC50 in experiment [1] and in experiment [2] were 0.0764 µM and 0.0613 µM, respectively.
For `Cc1nc(N[C@H](C)c2cccc(C(F)F)c2F)c2cn(C3(CF)CC3)c(=O)c(N3CCN(CC4(C)COC4)CC3)c2n1` [Example 109, (R)-4-((1-(3-(difluoromethyl)-2-fluorophenyl)ethyl)amino)-6-(1-(fluoromethyl)cyclopropyl)-2-methyl-8-(4-((3-methyloxetan-3-yl)methyl)piperazin-1-yl)pyrido[4,3-d]pyrimidine-7(6H)-one], the results for the IC50 in experiment [1] and in experiment [2] were 0.0237 µM and 0.0355 µM, respectively.
For `Cc1nc(N[C@H](C)c2cccc(C#N)c2C)c2cn(N3CCOCC3)c(=O)c(N3CCOC[C@@H]3C)c2n1` [Example 110, 2-methyl-3-((R)-1-((2-methyl-8-((S)-3-methylmorpholine)-6-morpholine-7-oxo-6,7-dihydropyrido[4,3-d]pyrimidin-4-yl)amino)ethyl)benzonitrile], in that order: 0.0504 µM and 0.0736 µM.
For `[2H][C@](C)(Nc1nc(C)nc2c(N3CCOC[C@@H]3C)c(=O)n(C3(CF)CC3)cc12)c1cccc(C(F)F)c1F` [Example 112, 4-(((R)-1-(3-(difluoromethyl)-2-fluorophenyl)ethyl-1-d)amino)-6-(1-(fluoromethyl)cyclopropyl)-2-methyl-8-((S)-3-methylmorpholine)pyrido[4,3-d]pyrimidine-7(6H)-one], in that order: 0.0212 µM and 0.109 µM.
As for `[2H]C([2H])([2H])[C@@H](Nc1nc(C)nc2c(N3CCOC[C@@H]3C)c(=O)n(C3(CF)CC3)cc12)c1cccc(C(F)F)c1F` [Example 113, 4-(((R)-1-(3-(difluoromethyl)-2-fluorophenyl)ethyl-2,2,2-d3)amino)-6-(1-(fluoromethyl)cyclopropyl)-2-methyl-8-((S)-3-methylmorpholine)pyrido[4,3-d]pyrimidine-7(6H)-one], the results for the IC50 in experiment [1] and in experiment [2] were 0.0156 µM and 0.07 µM, respectively.
Regarding `Cc1nc(N[C@H](C)c2cccc(C(C)(F)F)c2F)c2cn(C3(CF)CC3)c(=O)c(N3CCOC[C@@H]3C)c2n1` [Example 114, 4-(((R)-1-(3-(1,1-difluoroethyl)-2-fluorophenyl)ethyl)amino)-6-(1-(fluoromethyl)cyclopropyl)-2-methyl-8-((S)-3-methylmorpholine)pyrido[4,3-d]pyrimidine-7(6H)-one], the IC50 in experiment [1] turned out to be 0.0246 µM; in experiment [2] it was 0.0548 µM.
As for `Cc1nc(N[C@H](C)c2cccc([N+](=O)[O-])c2C)c2cn(C3(CF)CC3)c(=O)c(N3CCOCC3)c2n1` [Example 117, (R)-6-(1-(fluoromethyl)cyclopropyl)-2-methyl-4-((1-(2-methyl-3-nitrophenyl)ethyl)amino)-8-morpholinylpyrido[4,3-d]pyrimidine-7(6H)-one], the IC50 in experiment [1] amounted to 0.0133 µM; in experiment [2], 0.0224 µM.
For the compound `Cc1nc(N[C@H](C)c2cccc(C(F)F)c2F)c2cn(C3(CF)CC3)c(=O)c(OC(F)F)c2n1` [Example 119, (R)-8-(difluoromethoxy)-4-((1-(3-(difluoromethyl)-2-fluorophenyl)ethyl)amino)-6-(1-(fluoromethyl)cyclopropyl)-2-methylpyrido[4,3-d]pyrimidine-7(6H)-one], the IC50 in experiment [1] is 0.0721 µM; in experiment [2], 0.0546 µM.
For `Cc1nc(N[C@H](C)c2cccc(C(F)F)c2F)c2cn(N3CCOCC3)c(=O)c(-c3cnc4ccnn4c3)c2n1` [Example 120, (R)-4-((1-(3-(difluoromethyl)-2-fluorophenyl)ethyl)amino)-2-methyl-6-morpholino-8-(pyrazolo[1,5-a]pyrimidin-6-yl)pyrido[4,3-d]pyrimidine-7(6H)-one], in that order: 0.046 µM and 0.0874 µM.
For `Cc1nc(N[C@H](C)c2cccc(C(F)F)c2F)c2cn(C3(CF)CC3)c(=O)c(OCc3ccccn3)c2n1` [Example 122, (R)-4-((1-(3-(difluoromethyl)-2-fluorophenyl)ethyl)amino)-6-(1-(fluoromethyl)cyclopropyl)-2-methyl-8-(pyridin-2-ylmethoxy)pyrido[4,3-d]pyrimidine-7(6H)-one], in that order: 0.102 µM and 0.111 µM.
For the compound `[2H][C@](C)(Nc1nc(C)nc2c(N3CCS(=O)(=O)CC3)c(=O)n(C3(CF)CC3)cc12)c1cccc(C(F)F)c1F` [Example 124, (R)-4-((1-(3-(difluoromethyl)-2-fluorophenyl)ethyl-1-d)amino)-8-(1,1-dioxidothiomorpholinyl)-6-(1-(fluoromethyl)cyclopropyl)-2-methylpyrido[4,3-d]pyrimidine-7(6H)-one], the IC50 was determined as 0.0419 µM in experiment [1] and 0.0623 µM in experiment [2].
Take `[2H][C@](C)(Nc1nc(C)nc2c(N3CCC(S(C)(=O)=O)CC3)c(=O)n(C3(CF)CC3)cc12)c1cccc(C(F)F)c1F` [Example 125, (R)-4-((1-(3-(difluoromethyl)-2-fluorophenyl)ethyl-1-d)amino)-6-(1-(fluoromethyl)cyclopropyl)-2-methyl-8-(4-(methylsulfonyl)piperidin-1-yl)pyrido[4,3-d]pyrimidine-7(6H)-one]: the IC50 in experiment [1] came out at 0.0356 µM; in experiment [2], 0.0598 µM.
On to `Cc1nc(N[C@H](C)c2cccc(C(F)F)c2F)c2cn(C3(CF)CC3)c(=O)c(N3[C@@H](C)COC[C@@H]3C)c2n1` [Example 127, 4-(((R)-1-(3-(difluoromethyl)-2-fluorophenyl)ethyl)amino)-8-((3S,5S)-3,5-dimethylmorpholinyl)-6-(1-(fluoromethyl)cyclopropyl)-2-methylpyrido[4,3-d]pyrimidine-7(6H)-one], for which the results for the IC50 in experiment [1] and in experiment [2] were 0.09 µM and 0.0725 µM, respectively.
With `Cc1nc(N[C@H](C)c2cccc(C(F)F)c2F)c2cn(C3(CF)CC3)c(=O)c(N3CCN(CC(F)(F)F)CC3)c2n1` [Example 131, (R)-4-((1-(3-(difluoromethyl)-2-fluorophenyl)ethyl)amino)-6-(1-(fluoromethyl)cyclopropyl)-2-methyl-8-(4-(2,2,2-trifluoroethyl)piperazin-1-yl)pyrido[4,3-d]pyrimidine-7(6H)-one], the IC50 in experiment [1] came out at 0.0884 µM; in experiment [2], 0.0565 µM.
For `Cc1nc(N[C@H](C)c2cccc(C(F)F)c2F)c2cn(C3(CF)CC3)c(=O)c(N3CCN(CC4CC4)CC3)c2n1` [Example 132, (R)-8-(4-(cyclopropylmethyl)piperazin-1-yl)-4-((1-(3-(difluoromethyl)-2-fluorophenyl)ethyl)amino)-6-(1-(fluoromethyl)cyclopropyl)-2-methylpyrido[4,3-d]pyrimidine-7(6H)-one] the same measures were 0.0373 µM and 0.0843 µM.
On to `Cc1nc(N[C@H](C)c2cccc(C(F)F)c2F)c2cn(C3(CF)CC3)c(=O)c(N3CCN(CC4COC4)CC3)c2n1` [Example 133, (R)-4-((1-(3-(difluoromethyl)-2-fluorophenyl)ethyl)amino)-6-(1-(fluoromethyl)cyclopropyl)-2-methyl-8-(4-(oxetan-3-ylmethyl)piperazin-1-yl)pyrido[4,3-d]pyrimidine-7(6H)-one], for which the 50% inhibitory concentration (IC50) in experiment [1] was 0.0349 µM; in experiment [2] it was 0.07 µM.

The record behind these values is EP4417607A1, “HETEROCYCLIC COMPOUND AS SOS1 INHIBITOR AND USES THEREOF” (Nanjing Zaiming Pharmaceutical Co., Ltd., priority 2021, dated 2023).
